Assay results reported in article PMC12959148, “Exploring T. cruzi IMPDH as a promising target through Chagas Box screening and AVN-944 inhibition” (Antimicrobial Agents and Chemotherapy, 2026).
Where “and” joins values, the source holds several entries; their conditions need not be identical. Identical values can stand only once. Entries after “also recorded” stand apart in the source; their conditions may differ. Like-named read-outs stand apart in the source and are kept apart here.

Assays:
[1] = test system: T. cruzi; parameters: method as in PMID 12070425; settings: cited from earlier work
[2] = test system: T. cruzi amastigotes in H9c2 cells; test: Image-based infection assay, intracellular amastigotes in H9c2 host cells; assay type: cell-based; settings: Trypanosoma cruzi, read-out: EC50 against T. cruzi amastigotes in H9c2 cells
Procedure: To determine EC50 to kill intracellular amastigotes in H9c2 host cells, we used an image-based assay previously described in Alonso-Padilla et al. ([56]). Briefly, T. cruzi trypomastigotes (from LLC-MK2 supernatant) were used to infect H9c2 rat cardiomyocytes overnight. After washing, cells were incubated for 48 h in fresh DMEM, then seeded (1.5 × 10^3 cells/well) into 384-well plates with 50 µL assay volume (0.4% DMSO) containing 0.2 µL of compounds. After 72 h, cells were washed, fixed with 4% paraformaldehyde, and stained with Hoechst 33,342 (4 µg/mL). Images (five per well) were acquired using an Operetta microscope (20× objective) and analyzed with Columbus software. Data on cell count and infection ratio were processed in GraphPad Prism 9.5.0.

[3] = target: T. cruzi IMPDH (Trypanosoma cruzi, UniProt Q4CUG6); test: biochemical
Sequence of T. cruzi IMPDH (Q4CUG6 entry or part of it): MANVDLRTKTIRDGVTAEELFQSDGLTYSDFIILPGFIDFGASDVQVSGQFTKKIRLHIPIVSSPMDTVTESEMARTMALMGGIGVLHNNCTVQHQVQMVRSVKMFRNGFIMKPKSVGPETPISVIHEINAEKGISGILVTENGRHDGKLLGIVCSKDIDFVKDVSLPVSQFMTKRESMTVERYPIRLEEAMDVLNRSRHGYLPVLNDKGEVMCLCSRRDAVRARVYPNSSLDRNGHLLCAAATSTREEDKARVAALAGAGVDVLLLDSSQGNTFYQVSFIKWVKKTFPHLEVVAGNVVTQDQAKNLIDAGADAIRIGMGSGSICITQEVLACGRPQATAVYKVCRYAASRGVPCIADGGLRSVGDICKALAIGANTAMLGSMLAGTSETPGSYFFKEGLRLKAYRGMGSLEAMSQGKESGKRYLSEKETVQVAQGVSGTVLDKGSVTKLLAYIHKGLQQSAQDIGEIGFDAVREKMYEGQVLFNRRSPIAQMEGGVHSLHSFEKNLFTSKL
Procedure: (§1) Compounds were assayed at a single concentration of 10 μM. They were provided by GSK (GlaxoSmithKline) in a 384-well ready-to-use assay microplate containing 25 nL of each sample at 10 mM (100% DMSO). […] Velocities at steady state were calculated in the plate reader (CLARIOstar, BMG LabTech) as the maximum slope. […] After 15 min, resorufin fluorescence (Ex = 570 nm; Em = 590 nm) was measured in a plate reader (CLARIOstar, BMG LabTech). Data were normalized and plotted using GraphPad Prism 9.5.0.
The above-mentioned diaphorase-coupled assay was used. […] TcIMPDH activity was normalized, and the IC50 was calculated using GraphPad Prism 9.5.0.

[4] = test system: human IMPDHs; settings: read-out: Km of human IMPDHs for substrate; cited from earlier work
[5] = test system: L. donovani IMPDH; settings: read-out: Km of L. donovani IMPDH for substrate; cited from earlier work
[6] = test system: recombinant TcIMPDH; test: TcIMPDH Michaelis-Menten kinetics, NADH fluorescence direct assay; assay type: biochemical, Trypanosoma cruzi; settings: 25°C, pH 7, other substrate at 1 mM, 1 μM enzyme
Procedure: Em = 485 nm) at 25°C, in black 384-wells microplates. Fluorescence was recorded every 30 s over 10 min using a CLARIOstar plate reader (BMG LabTech) and steady-state velocities were calculated from the maximum slope of the fluorescence curve. All reactions were performed in triplicate, under optimized buffer conditions: 50 mM tri-sodium citrate (pH 7), 100 mM KCl, and 1 mM DTT. For both substrates, 1 μM of purified recombinant […] was used.

[7] = test system: T. brucei IMPDH; parameters: method as in PMID 23369253; settings: read-out: Km of T. brucei IMPDH for substrate; cited from earlier work
[8] = target: human IMPDH isoenzymes; settings: cited from earlier work
[9] = test system: T. cruzi amastigotes; parameters: method as in PMID 25740547; settings: calculated from reported pEC50 value; read-out: EC50 anti-amastigote activity, previously reported; cited from earlier work
[10] = target: TcIMPDH (Trypanosoma cruzi, UniProt Q4CUG6); test: Chagas Box single-concentration screening for TcIMPDH inhibitors; assay type: biochemical
Sequence of TcIMPDH (Q4CUG6 entry or part of it): as above
Procedure: as §1

[11] = test system: CYP51; parameters: method as in PMID 25740547; settings: cited from earlier work
[12] = H9c2, 72 h, image-based, at least two biological replicates
[13] = read-out: IC50 against T. cruzi IMPDH

For `COc1c(C)c2c(c(O)c1C/C=C(\C)CCC(=O)OCCN1CCOCC1)C(=O)OC2` [Mycophenolate mofetil], which “parasitemia in Chagas murine model” value [1] is on record?
Its value is “reduction of parasitemia”.

And the “survival / parasitological cure in Chagas murine model” value [1]?
The value was “fails to improve survival outcomes or achieve parasitological cure”.

And the EC50 [2, 12]?
The EC50 was 1500 nM.

What about the IC50 [3, 13] of the same compound?
Its IC50 is 4400 nM.

With `NC(=O)c1ccc[n+]([C@@H]2O[C@H](COP(=O)([O-])OP(=O)(O)OC[C@H]3O[C@@H](n4cnc5c(N)ncnc54)[C@H](O)[C@@H]3O)[C@@H](O)[C@H]2O)c1` [NAD^+, nicotinamide adenine dinucleotide oxidized form] as the compound, how does the Km [4] read?
Its Km is 6 to 70 µM.

What about the Km [5] of the same compound?
The Km was 390 µM.

And the Km [6]?
Its Km is 292 µM.

What about the Km [7] of the same compound?
The Km was 1300 µM.

For `CC[C@H](CC#N)OC(=O)N[C@@H](C)c1cccc(NC(=O)Nc2ccc(-c3cnco3)c(OC)c2)c1` [AVN-944], which Ki [8] is on record?
The Ki was 6 to 10 nM.

What about the EC50 ([2]; H9c2, 72 h) of the same compound?
The EC50 was 400 nM.

And the IC50 [3]?
Its IC50 is 200 nM.

And the Ki [3]?
Its Ki is about 81 nM.

Which EC50 [2, 12] does the source give for `COc1cc(NC(=O)Nc2cccc(CNC(=O)O[C@@H]3CCOC3)c2)ccc1-c1cnco1` [(R)-Merimepodib] here?
Its EC50 is 3000 nM.

What about the IC50 [3] of the same compound?
The IC50 was 370 nM.

With `O=C(Cn1ccnc1[N+](=O)[O-])NCc1ccccc1` [Benznidazole] as the compound, how does the EC50 [2, 12] read?
Its EC50 is 3000 nM.

With `COc1cc(NC(=O)Nc2cccc(CNC(=O)O[C@H]3CCOC3)c2)ccc1-c1cnco1` [(S)-Merimepodib] as the compound, how does the EC50 [2, 12] read?
The EC50 was 4800 nM.

And the IC50 [3]?
Its IC50 is 210 nM.

Which “inhibition of TcIMPDH activity” value [3] does the source give for `NC(=O)c1ncn([C@@H]2O[C@H](CO)[C@@H](O)[C@H]2O)c1O` [Mizoribine] here?
The value was “did not show measurable inhibition; also recorded: inactive”.

With `COc1cc(NC(=O)Nc2cccc(CNC(=O)OC3CCCCC3)c2)ccc1-c1cnco1` [TCMDC-143376] as the compound, how does the EC50 [9] read?
The EC50 was ~15900 nM and 15900 nM.

What about the inhibition at 10 µM ([10]; 10 μM compound, two independent runs, read-out: inhibition of TcIMPDH in primary screening) of the same compound?
The inhibition at 10 µM was 55 to 60%.

What about the IC50 ([10]; estimated from inhibition at the fixed concentration 10 μM, read-out: IC50 suggested by screening) of the same compound?
The IC50 was under 10000 nM.

And the IC50 [11]?
Its IC50 is about 25000 nM.

And the IC50 [3, 13]?
Its IC50 is 4000 nM.
